# Results: US12115153B2, “Methods of treating cancer” (Kartos Therapeutics, Inc., priority 2018, dated 2024)
# How the values were obtained:
# [1] = test system: p53 wild-type tumor cell lines; test: Cell viability assay (72 hours), panel of tumor cell lines; assay type: cell-based
# From the text: SJSA-1, HCT116, ACHN, NCI-H460, MOLM-13, RKO, MCF7, 22RV1, HT-29, PC-3, NCI-H82, NCI-SNU1, and MG-63 cells were purchased from the ATCC, and have since been authenticated by short tandem repeat analysis (PowerPlex 18D Kit from Promega). NCI-H2452, SW982, C32, SK-HEP-1, A375, RT4, RPMI-2650, MDA-MB-134-VI, NCI-H2347, and A427 cells were purchased from ATCC and used within 6 months. IGR-1 and CML-T1 cells were purchased from German Collection of Microorganisms and Cell Cultures (DSMZ) and used within 6 months. A375sq2 cells were generated by in vivo passaging A375 cells in mice. HCT116 p53^−/− cells were obtained from Bert Vogelstein. […]
# CellTiter-Glo Luminescent Cell Viability (Promega) or ATPlite 1 step Luminescent (PerkinElmer) assay kits were used to determine the numbers of viable cells. Luminescence was measured with an EnVision Multilabel Reader (PerkinElmer) for each cell line at time zero (V0) before the addition of compounds, as well as after 72 hours of compound treatment. Growth inhibition (GI) was calculated on a 200-point scale according to the following equations, where V72 was luminescence of DMSO control at 72 hours and T72 was luminescence of the compound-treated sample: if T72>V0, then GI=100×(1−((T72−V0)/(V72−V0))); if T72<V0, then GI=100×(1−((T72−V0)/V0)). […]
# [2] = test system: SJSA-1 (MDM2 amplified) tumor; test: SJSA-1 xenograft study; assay type: in vivo, female athymic nude mice
# Method: (§1) All animal experimental procedures were conducted in accordance with Association for Assessment and Accreditation of Laboratory Animal Care standards. All studies utilized 4- to 6-week-old female athymic nude mice (Harlan Laboratories, Hsd: Athymic Nude-Foxn1nu). The mice were housed five per filter-capped cage in sterile housing in an environmentally controlled room (temperature 23±2° C., relative humidity 50±20%) on a 12-hour light/dark cycle. The mice were fed commercial rodent chow (Harlan Laboratories, #2920X) and received filter-purified tap water ad libitum. The mice were individually identified by microchips (Bio Medic Data Systems) that were implanted subcutaneously at least 2 days before the study.
# Treatment began when tumors were established and approximately 200 mm3. […] Tumor dimensions were assessed twice weekly with a Pro-Max electronic digital caliper (Sylvac) and tumor volume was calculated using the formula: length×width×height and expressed as mm3. Data are expressed as mean±SEM. […] Analysis of p21 mRNA at the end of the xenograft studies was performed as described for the p21 pharmacodynamic assay.
# HCT116 (KRAS) tumor = test: HCT116 xenograft study; assay type: in vivo, female athymic nude mice
# Method: as §1
# (§2) SJSA-1 cells (5×10^6 cells with Matrigel at a ratio of 2:1), NCI-H460 cells (5×10^6 cells with Matrigel at a ratio of 2:1), A375sq2 (5×10^6 cells with Matrigel at a ratio of 2:1), or HCT116 ([…]) were injected subcutaneously in the flank of female athymic nude mice (n=10/group). Treatment began when tumors were established and approximately 200 mm3. The compound of Formula (I) was administered once per day by oral gavage. Tumor dimensions were assessed twice weekly with a Pro-Max electronic digital caliper (Sylvac) and tumor volume was calculated using the formula: length×width×height and expressed as mm3. Data are expressed as mean±SEM. Body weight was recorded twice weekly to assess tolerability (data not shown). Analysis of p21 mRNA at the end of the xenograft studies was performed as described for the p21 pharmacodynamic assay.
# A375sq2 (BRAF) tumor = test: A375sq2 xenograft study; assay type: in vivo, female athymic nude mice
# Method: as §1
# as §2, with “The compound of Formula (I) was administered once per day by oral gavage.” left out, “Analysis of p21 mRNA at the end of the xenograft studies was performed as described for the p21 pharmacodynamic assay.” left out
# [3] = test system: tumor cell lines harboring wild-type p53; test: Xenograft models of different genetic backgrounds and tumor types (all models); assay type: in vivo, female athymic nude mice; details: daily oral administration, FIGS. 3-5
# Method: as §1
# as §2, with “The compound of Formula (I) was administered once per day by oral gavage.” left out, “Analysis of p21 mRNA at the end of the xenograft studies was performed as described for the p21 pharmacodynamic assay.” left out
# p21 mRNA = p21 mRNA in tumors harvested at the end of xenograft studies (qRT-PCR); assay type: in vivo, female athymic nude mice; details: FIG. 6
# Method: Tumor cells (SJSA-1: 5×10^6 cells, HCT 116: 2×10^6 cells) were injected subcutaneously into the flank of female athymic nude mice in a 2:1 ratio of cells to Matrigel (BD Bioscience). […] Tumors were harvested after 1, 2, 4, 8, and 24 hours after dose (SJSA-1) or 6 hours after dose (HCT116) and snap-frozen in liquid nitrogen. Total RNA was purified using Qiagen RNeasy 96 kit (Qiagen). The levels of p21 and the housekeeping gene GAPDH were assayed from total RNA from each sample in technical duplicates by qRTPCR. The qRT-PCR reactions were assayed on the Applied Biosystems Prism 7900HT instrument and the data were analyzed with Applied Biosystems SDS2.2 software. The SDS2.2 software calculated the p21 and GAPDH copy number in each of the tumor samples. The copy number of p21 was normalized to the copy number of the GAPDH, and the fold increase of normalized p21 levels were calculated relative to vehicle control for each sample. For MIC-1, plasma was collected at the time of sacrifice and MIC-1 was detected using R&D Quantikine Human MIC-1 Immunoassay (cat no. DGD150) following the manufacturer's instructions. The ELISA assay was read using a Spectramax M5 microplate reader using Softmax pro v4 (Molecular Devices). […]
# AML tumor = AML tumor growth (FIG. 7, FIG. 8); assay type: in vivo, mouse
# cell cycle = test: Cell cycle (FIG. 9); assay type: cell-based
# [4] = test system: p53 wild type AML cell lines; test: Apoptosis in AML cell lines (FIG. 10); assay type: cell-based
structure (smiles),measurement,setting,value
"CC(C)[C@@H](CS(=O)(=O)C(C)C)N1C(=O)[C@@](C)(CC(=O)O)C[C@H](c2cccc(Cl)c2)[C@H]1c1ccc(Cl)cc1 [compound of Formula (I), 2-((3R,5R,6S)-5-(3-chlorophenyl)-6-(4-chlorophenyl)-1-((S)-1-(isopropylsulfonyl)-3-methylbutan-2-yl)-3-methyl-2-oxopiperidin-3-yl) acetic acid]",IC50,"[1]; 23 p53 wild-type cell lines, 72-hour period, read-out: IC50, inhibition of cell growth",100 to 1000 nM
same,proliferation of p53 WT tumor cells,[1]; FIG. 2,inhibits the proliferation of p53 WT tumor cells
same,tumor regrowth after treatment stopped,"[2]; 75 mg/kg group, treatment stopped after day 25, observed additional 50 days",no detectable SJSA-1 tumor regrowth
same,ED50,"[2]; Mus musculus, SJSA-1, po, once per day by oral gavage, read-out: ED50, in vivo tumor growth",9 mg/kg
same,tumors completely regressed and undetectable,"[2]; highest dose group of 75 mg/kg, after 10 days of treatment",10 of 10
same,ED50,"HCT116 (KRAS) tumor; Mus musculus, HCT-116, po, once per day by oral gavage, read-out: ED50, in vivo tumor growth",31.6 mg/kg
same,TGI compared with control,HCT116 (KRAS) tumor; highest dose,86%
same,"ED50, in vivo tumor growth",HCT116 (KRAS) tumor; once per day by oral gavage,31 mg/kg
same,ED50,"A375sq2 (BRAF) tumor; Mus musculus, A375-SQ2, once per day by oral gavage, read-out: ED50, in vivo tumor growth",18 mg/kg
same,TGI,"A375sq2 (BRAF) tumor; mouse, in vivo",97%
same,tumor growth inhibition (TGI) across all models,[3],significant tumor growth inhibition
same,induction of p21 mRNA compared with vehicle-treated tumors,p21 mRNA,dose- and time-dependent induction of p21 mRNA
same,AML tumor growth,AML tumor,inhibits AML tumor growth in a mouse model in a dose dependent manner
same,effect on cell cycle,cell cycle,inhibits the cell cycle
same,apoptosis,[4],induces apoptosis
